Experiments:
Assay type in all cases: in vivo
Bitterness of Green Tea = experiment: Blinded paired taste comparison, bitterness of green tea extract; settings: 39 panelists; for C Chosen: panelists choosing comparative sample C as highest bitterness; for Test Sample Chosen: panelists choosing test sample as highest bitterness
Experimental: (§1) A series of test samples and a comparative sample were prepared. The comparative sample (C) contained green tea extract in water at a concentration of 0.30 wt %. Two test samples were prepared. Each test sample contained green tea extract in water at a concentration of 0.30 wt %. In addition, one test sample (S1) also contained TM1 at 20 ppm, and another sample (S2) contained TM1 at 40 ppm. Sample pairs, a test sample and a comparative sample, were presented in a blinded fashion to panelists, they were asked to taste the samples and identify the sample with the highest bitterness.

[1] = tested on: Bitterness of Guaifenesin; experiment: Blinded paired taste comparison, bitterness of guaifenesin; settings: 39 panelists
Experimental: (§2) A test sample and a comparative sample were prepared. The comparative sample (C) contained guaifenesin in water at a concentration of 24 mM. The test sample (S1) contained guaifenesin in water at a concentration of 24 mM and TM1 at a concentration of 50 ppm. Sample pairs, a test sample and a comparative sample, were presented in a blinded fashion to panelists, they were asked to taste the samples and identify the sample with the highest bitterness.

Bitterness of Coffee = experiment: Blinded paired taste comparison, bitterness of instant coffee; settings: sample S1: TM1 10 ppm in instant coffee (Taster's Choice French Roast) vs C, 33 panelists
Experimental: A test sample and a comparative sample were prepared. The comparative sample (C) instant coffee (Taster's Choice French Roast, acquired in the United States) made according to the directions. The test sample (S1) consisted of instant coffee (Taster's Choice French Roast, acquired in the United States) made according to the directions and TM1 at a concentration of 10 ppm. Sample pairs, a test sample and a comparative sample, were presented in a blinded fashion to panelists, they were asked to taste the samples and identify the sample with the highest bitterness.

Bitterness of Saccharin = experiment: Blinded paired taste comparison, bitterness of saccharin; settings: sample S1: TM1 10 ppm + saccharin 1000 ppm in water vs C, 33 panelists
Experimental: as §2, with “saccharin” for “guaifenesin”, “1000 ppm.” for “24 mM.”, “1000 ppm” for “24 mM”, “10” for “50”

[2] = tested on: Bitterness of Pea Protein; experiment: Blinded paired taste comparison, bitterness of pea protein; settings: sample S1: TM1 10 ppm + pea protein 4 wt % in water vs C, 30 panelists
Experimental: as §2, with “pea protein” for “guaifenesin”, “4 wt %.” for “24 mM.”, “4 wt %” for “24 mM”, “10” for “50”

[3] = tested on: Bitterness of Potato Protein; experiment: Blinded paired taste comparison, bitterness of potato protein; settings: sample S1: TM1 10 ppm + potato protein 4 wt % in water vs C, 39 panelists
Experimental: as §2, with “potato protein” for “guaifenesin”, “4 wt %.” for “24 mM.”, “4 wt %” for “24 mM”, “10” for “50”

[4] = tested on: Bitterness of Grapefruit Juice; experiment: Blinded paired taste comparison, bitterness of grapefruit juice; settings: 39 panelists
Experimental: as §2, with “consisted” for “contained guaifenesin in water at a concentration”, “grapefruit juice.” for “24 mM.”, “grapefruit juice” for “24 mM”, “10” for “50”

Bitterness of Ginseng = experiment: Blinded paired taste comparison, bitterness of ginseng; settings: sample S1: TM1 10 ppm + ginseng 0.036 wt % in water vs C, 39 panelists
Experimental: as §2, with “ginseng” for “guaifenesin”, “0.036 wt %.” for “24 mM.”, “0.036 wt %” for “24 mM”, “10” for “50”

Bitterness of Caffeine = experiment: Blinded paired taste comparison, bitterness of caffeine; settings: sample S1: TM1 10 ppm + caffeine 0.08 wt % in water vs C, 39 panelists
Experimental: as §2, with “caffeine” for “guaifenesin”, “0.08 wt %.” for “24 mM.”, “0.08 wt %” for “24 mM”, “10” for “50”

[5] = tested on: Bitterness of Acetaminophen; experiment: Blinded paired taste comparison, bitterness of acetaminophen; settings: for C Chosen: panelists choosing comparative sample C as highest bitterness; for Test Sample Chosen: panelists choosing test sample as highest bitterness
Experimental: as §1, with “acetaminophen” for “green tea extract”, “90 mM. Four” for “0.30 wt %. Two”, “90 mM.” for “0.30 wt %.”, “100” for “20”, “ppm,” for “ppm, and”, “50 ppm, another sample (S3) contained TM1 at 25 ppm, and another sample (S4) contained TM1 at 10” for “40”

[6] = sample S1: TM1 20 ppm + green tea extract 0.30 wt % in water vs C
[7] = sample S2: TM1 40 ppm + green tea extract 0.30 wt % in water vs C
[8] = panelists choosing comparative sample C as highest bitterness
[9] = panelists choosing test sample as highest bitterness
[10] = sample S2: TM1 50 ppm + acetaminophen 90 mM in water vs C, 48 panelists
[11] = sample S3: TM1 25 ppm + acetaminophen 90 mM in water vs C, 45 panelists
[12] = sample S4: TM1 10 ppm + acetaminophen 90 mM in water vs C, 45 panelists

CC(=O)c1cc2c(cc1NC(=O)CN1CCN(C(C)=O)CC1)OCCO2 [TM1, N-(7-acetyl-2,3-dihydrobenzo[b][1,4]dioxin-6-yl)-2-(4-acetylpiperazin-1-yl)acetamide]
C Chosen (Bitterness of Green Tea; [6]): 28
C Chosen (Bitterness of Green Tea; [7]): 26
Test Sample Chosen (Bitterness of Green Tea; [6]): 11
Test Sample Chosen (Bitterness of Green Tea; [7]): 13
C Chosen ([1]; panelists choosing comparative sample C as highest bitterness, sample S1: TM1 50 ppm + guaifenesin 24 mM in water vs C): 32
Test Sample Chosen ([1]; panelists choosing test sample as highest bitterness, sample S1: TM1 50 ppm + guaifenesin 24 mM in water vs C (guaifenesin 24 mM)): 7
C Chosen (Bitterness of Coffee; [8]): 27
Test Sample Chosen (Bitterness of Coffee; [9]): 6
C Chosen (Bitterness of Saccharin; [8]): 24
Test Sample Chosen (Bitterness of Saccharin; [9]): 9
C Chosen [2, 8]: 20
Test Sample Chosen [2, 9]: 10
C Chosen [3, 8]: 26
Test Sample Chosen [3, 9]: 13
C Chosen ([4]; panelists choosing comparative sample C as highest bitterness, sample S1: TM1 10 ppm in grapefruit juice vs C): 26
Test Sample Chosen ([4]; panelists choosing test sample as highest bitterness, sample S1: TM1 10 ppm in grapefruit juice vs C (grapefruit juice)): 13
C Chosen (Bitterness of Ginseng; [8]): 26
Test Sample Chosen (Bitterness of Ginseng; [9]): 13
C Chosen (Bitterness of Caffeine; [8]): 29
Test Sample Chosen (Bitterness of Caffeine; [9]): 10
C Chosen ([5]; sample S1: TM1 100 ppm + acetaminophen 90 mM in water vs C, 31 panelists): 27
C Chosen [5, 10]: 39
C Chosen [5, 11]: 33
C Chosen [5, 12]: 31
Test Sample Chosen ([5]; sample S1: TM1 100 ppm + acetaminophen 90 mM in water vs C (acetaminophen 90 mM), 31 panelists): 4
Test Sample Chosen [5, 10]: 9
Test Sample Chosen [5, 11]: 12
Test Sample Chosen [5, 12]: 14

Source: US20250204564A1, “TASTE MODIFYING COMPOSITIONS AND USES THEREOF” (Firmenich Incorporated, priority 2022, published 2025)
